In patent US20170355959A1, “METHODS FOR MOBILISING POPULATIONS OF STEM CELLS” (Imperial Innovations Limited, priority 2014, published 2017):
Read-outs that look alike come from different tables or passages of the source.

Legend:
[1] = tested on: HSPCs; assay: Mobilization of HSPCs into peripheral blood (CFU-HPC assay); type: in vivo, mice; conditions: for level of HSPC mobilization: 3 day pre-treatment with one agonist alone, beta 3 agonist and CXCR4 antagonist on day 4; for priming of HSPCs for mobilization: 4 day pre-treatment, CB1 and CB2 agonists in combination, even with FAAH inhibitor; for effect on HSPC mobilization induced by 4 day beta 3 adrenergic agonist and CXCR4 antagonist: inhibitor or antagonist given 60 minutes prior to BRL 37344, once daily for 4 days
Experimental: (§1) Mice were administered the β-adrenergic agonists isoproterenol (10 mg/kg i.p.), clenbuterol (5 mg/kg i.p.) and BRL 37344 (10 mg/kg i.p.), the cannabinoid receptor agonists ACEA (10 mg/kg i.p.) and GP1a (5 mg/kg i.p.), or vehicle either on 4 consecutive days or 2 hours prior to the cull. 1 hour after the last injection, mice were administered the CXCR4 antagonist AMD3100 (5 mg/kg i.p.) or vehicle. 1 hour later their blood was collected via cardiac puncture for enumeration of circulating CFU-HPCs and CFU-Fs. Mice were administered murine G-CSF (100 μg/kg i.p.) or vehicle on 4 consecutive days. On day 5, blood was collected via cardiac puncture for enumeration of circulating HSPCs.
(§2) Harvested peripheral blood or perfusate was red blood cell-lysed and 1×10^5 cells were added to tissue culture-treated petri dishes containing 1 ml of Methocult™ (M3434; StemCell Technologies) to select for CFU-HPCs. Cultures were incubated at 37° C. and quantified on day 12. Similarly, 1×10^6 bone marrow cells harvested by bone marrow flush of the hind limb femur were plated for CFU-HPCs.

[2] = tested on: CFU-Fs (MSPCs); assay: Mobilization of MSPCs into peripheral blood (CFU-F assay); type: in vivo, mice; conditions: for priming of MSCs for mobilization: 4 day pre-treatment, CB1 and CB2 agonists in combination, even with FAAH inhibitor
[3] = tested on: CFU-Fs (MSCs); assay: In situ perfusion of mouse hind limb, CFU-Fs in perfusate; type: in vivo, mice
Experimental: (§3) Mice were administered BRL 37344 (10 mg/kg i.p.) or vehicle on 4 consecutive days. 1 hour after the last injection, the mice were anaesthetized. The femoral vein and artery were exposed and cannulated in situ immediately after the hind limb was isolated by occlusion of the surrounding arteries as previously described (Pitchford et al, 2009; Pitchford et al, 2010). Perfusion buffer was infused via the arterial cannula and removed from the venous cannula using a Minipuls Peristaltic Pump (Anachem). The hind limb was initially infused with AMD3100 (0.1 mM) or vehicle for 10 minutes using an infusion/withdrawal pump (Harvard Instruments) and was further perfused for 50 minutes with perfusion buffer (Pitchford et al, 2010). The perfusate was collected over 60 minutes and then centrifuged and resuspended in DMEM (Gibco) +20% fetal bovine serum for enumeration of CFU-HPCs and CFU-Fs.
Harvested peripheral blood or perfusate was red blood cell-lysed and 1×10^6 cells were added to tissue culture-treated 6-well plates containing 3 ml of Mesencult™ (05502; StemCell Technologies) to select for CFU-Fs. Similarly, 1×10^6 bone marrow cells harvested by bone marrow flush of the hind limb femur were plated for CFU-Fs. Cultures were incubated at 37° C. and media was changed on day 7. Bone marrow-derived CFU-Fs were enumerated on day 13 and blood- and perfusate-derived CFU-Fs were enumerated on day 21. Blood derived-CFU-Fs were further expanded and assessed for mesenchymal lineage markers by flow cytometry and following CD45 depletion (flow cytometry sorting of CD45 negative for mesenchymal trilineage differentiation (Supplemental Experimental Procedures).

[4] = tested on: total white blood cells; conditions: CXCR4 antagonist alone
Experimental: as §1

[5] = tested on: MSCs; conditions: G-CSF and/or the CXCR4 antagonist; cited from earlier work
[6] = tested on: HPCs; assay: In situ perfusion of mouse hind limb, CFU-HPCs in perfusate; type: in vivo, mice
Experimental: as §3, §2

[7] = tested on: HSPCs; conditions: mice; cited from earlier work
[8] = tested on: HSPCs; conditions: humans; cited from earlier work
[9] = tested on: free fatty acids; assay: Free fatty acid assay in blood plasma; type: in vivo, mice; conditions: pre-treatment 60 minutes prior to the b3 adrenergic agonist, 4 days
Experimental: as §1
Free fatty acid content in blood plasma was quantified using a serum/plasma fatty acid detection Kit (Zen Bio) and the assay was performed according to the manufacturers' instructions. Data are expressed as μM concentration of free fatty acids.

[10] = tested on: FFAs; conditions: infusion directly into the vasculature of the canine femur; cited from earlier work
[11] = tested on: CXCL12; conditions: in vivo; cited from earlier work
[12] = 3 days CB1 and CB2 agonists in combination, beta 3 agonist on the fourth day prior to CXCR4 antagonist
[13] = vehicle pre-treated mice, hind limb infused with CXCR4 antagonist for 10 min
[14] = AMD3100 alone, 5 mg/kg i.p., blood 1 hour later
[15] = four day pretreatment, b3 adrenergic agonist in combination with FAAH inhibitor
[16] = acute treatment (2 h), alone or in combination with acute CXCR4 antagonist
[17] = pre-treated once daily for 4 days, then AMD3100, blood 1 hour later

With CCCCC/C=C\C/C=C\C/C=C\C/C=C\CCCC(=O)NCCCl [ACEA, Arachidonyl-2-chloroethylamide] the “level of HSPC mobilization” value [1] was “significantly less than that achieved using these agonists in combination”, the HSPC mobilization [1, 12] was “stem cells were mobilized” and the “priming of HSPCs for mobilization” value [1] was “not sufficient to prime MSCs or HSPCs for mobilization”. The “priming of MSCs for mobilization” value [2] was “not sufficient to prime MSCs or HSPCs for mobilization”, the CFU-F mobilization ([2]; mouse, in vivo) was “stem cells were mobilized” and the “level of CFU-F mobilization” value ([2]; mouse, in vivo) was “significantly less than that achieved using these agonists in combination”.

With Cc1c(C(=O)NN2CCCCC2)nn(-c2ccc(Cl)cc2Cl)c1-c1ccc(I)cc1 [AM251] the “effect on HSPC mobilization induced by 4 day beta 3 adrenergic agonist and CXCR4 antagonist” value (“effect on HSPC mobilization induced” below) [1] was “significantly suppressed”.

With COc1ccc(C(=O)c2c(C)n(CCN3CCOCC3)c3cc(I)ccc23)cc1 [AM630] the “effect on HSPC mobilization induced” value [1] was “significantly suppressed” and the “effect on CFU-F mobilization induced by 4 day beta 3 adrenergic agonist and CXCR4 antagonist” value (“effect on CFU-F mobilization induced” for short) ([2]; mouse, in vivo) was “significantly suppressed”.

With c1cc(CN2CCCNCCNCCCNCC2)ccc1CN1CCCNCCNCCCNCC1 [AMD3100] the “MSCs mobilized from the bone marrow” value [3, 13] was “HPCs but not MSCs were mobilized from the bone marrow”, the “mobilization of HSPCs into the blood” value [1, 14] was “stimulated mobilization of HSPCs into the blood” and the CFU-Fs in blood [2, 14] was “no colony forming units-fibroblasts (CFU-Fs; a measure of MSCs) were detectable”. For the same molecule, the “mobilization of total white blood cells” value [4] was “significantly increased”, the “mobilisation of MSCs from the bone marrow into the blood” value [5] was “not effective” and the “HPCs mobilized from the bone marrow” value [6, 13] was “HPCs but not MSCs were mobilized from the bone marrow”. The “circulating numbers of HSPCs” value [7] was “stimulates a rapid rise in circulating numbers of HSPCs” and the “circulating numbers of HSPCs” value [8] was “stimulates a rapid rise in circulating numbers of HSPCs”.

With CC(C)(C)NCC(O)c1cc(Cl)c(N)c(Cl)c1 (centres unmarked) [Clenbuterol] the HSPC mobilization ([1]; once daily for 4 days, alone or in combination with the CXCR4 antagonist) was “did not stimulate HSPC or MSC mobilization” and the MSC mobilization ([2]; mouse, in vivo) was “did not stimulate HSPC or MSC mobilization”.

With Cc1ccc2c(c1)Cc1c(C(=O)NN3CCCCC3)nn(-c3ccc(Cl)cc3Cl)c1-2 [GP1a, N-(Piperidin-1-yl)-1-(2,4-dichlorophenyl)-1,4-dihydro-6-methylindeno[1,2-c]pyrazole-3-carboxamide] the “level of HSPC mobilization” value [1] was “significantly less than that achieved using these agonists in combination”, the HSPC mobilization [1, 12] was “stem cells were mobilized” and the “priming of HSPCs for mobilization” value [1] was “not sufficient to prime MSCs or HSPCs for mobilization”. For the same molecule, the “priming of MSCs for mobilization” value [2] was “not sufficient to prime MSCs or HSPCs for mobilization”, the CFU-F mobilization ([2]; mouse, in vivo) was “stem cells were mobilized” and the “level of CFU-F mobilization” value ([2]; mouse, in vivo) was “significantly less than that achieved using these agonists in combination”.

For COc1ccc2cc([C@H](C)C(=O)O)ccc2c1 [Naproxen], the “effect on HSPC mobilization induced” value [1] was “significant increase in the mobilization of both HSPCs or CFU-Fs”.

In the case of CCCCCCCCCCC[C@@H](C[C@@H]1OC(=O)[C@H]1CCCCCC)OC(=O)[C@H](CC(C)C)NC=O [Orlistat], the “effect on HSPC mobilization induced” value [1] is reported as “completely abrogated”, the “effect on CFU-F mobilization induced” value ([2]; inhibitor or antagonist given 60 minutes prior to BRL 37344, once daily for 4 days) is reported as “completely abrogated” and the “effect on the b3 adrenergic agonist induced increase of FFA levels in plasma” value [9] is reported as “attenuated”.

With NC(=O)c1cccc(-c2cccc(OC(=O)NC3CCCCC3)c2)c1 [URB597] the “MSC egress from the bone marrow in response to infusion of the CXCR4 antagonist” value [3, 15] was “significantly enhanced both HPC and MSC egress from the bone marrow”, the “effect on HSPC mobilization induced” value [1] was “significantly enhanced” and the “effect on CFU-F mobilization induced” value ([2]; mouse, in vivo) was “significantly enhanced”. The “HPC egress from the bone marrow in response to infusion of the CXCR4 antagonist” value [6, 15] was “significantly enhanced both HPC and MSC egress from the bone marrow”.

For CC(C)NCC(O)c1ccc(O)c(O)c1 (centres unmarked) [isoproterenol], the “circulating numbers of HSPCs” value ([1]; 4 day pre-treatment alone) was “did not change circulating numbers of HSPCs or CFU-Fs”, the “mobilization of HSPCs” value [1, 16] was “did not enhance the mobilization of HSPCs above AMD3100 alone” and the “circulating HSPC numbers” value [1, 17] was “significantly elevated over treatment with the CXCR4 antagonist alone”. The “circulating numbers of CFU-Fs” value ([2]; 4 day pre-treatment alone) was “did not change circulating numbers of HSPCs or CFU-Fs”, the “CFU-Fs in the blood” value [2, 16] was “did not result in detectable numbers of CFU-Fs in the blood” and the “circulating CFU-Fs” value [2, 17] was “CFU-Fs were mobilized”. The “release of FFAs into the femoral vein” value [10] was “release of FFAs into the femoral vein”.

B1: G-CSF: cytokine, granulocyte colony stimulating factor; murine G-CSF (PeproTech) (protein, UniProt P09920 31-208, looked up)
Granulocyte …: VPLVTVSALPPSLPLPRSFLLKSLEQVRKIQASGSVLLEQLCATYKLCHPEELVLLGHSLGIPKASLSGCSSQALQQTQCLSQLHSGLCLYQGLLQALSGISPALAPTLDLLQLDVANFATTIWQQMENLGVAPTVQPTQSAMPAFTSAFQRRAGGVLAISYLQGFLETARLALHHLA
For B1, the “G-CSF-induced mobilization of haematopoietic progenitor cells” value ([1]; in the presence or absence of AM251 or AM630, 4 consecutive days) is listed as “Independent of Cannabinoid Receptor Signalling”, the “effect on β3-AR agonist/AMD3100 mobilisation of MSPCs” value ([2]; mouse, in vivo, ip) is listed as “impairs” and the “levels of CXCL12 in the bone marrow” value [11] is listed as “reducing levels of CXCL12 in the bone marrow”. For the same molecule, the “mobilisation of MSCs from the bone marrow into the blood” value [5] was “not effective”.
